Series [1] concerns nitric oxide production in LPS-activated BV-2 microglia. Briefly: Inhibition of NO production in LPS-stimulated BV-2 microglia. The conditions noted are these: for inhibitory activity against nitric oxide production (in words): IC50 values lower than those of quercetin, the positive control. It counts as cell-based. The protocol:
Two new compounds and six known compounds caesalpin J (3), 1-hydroxy-7-methylxanthone (4), 1,5-dihydroxyxanthone (5), 1,7-dihydroxyxanthone (6), butein (7), and sappanone A (8) were evaluated for their inhibitory activities against nitric oxide production in LPS-activated BV-2 microglia according to a previously described method.
Cytotoxicity was determined with the MTT assay.

A short description of series [2]: Cytotoxicity (cell viability) by MTT assay. The conditions noted are these: mouse, BV-2 microglia cells, Viability (at 50 µM, %), compound at 50 µM.
Method: (§1) Each compound was dissolved in DMSO and further diluted in the medium to produce different concentrations with a maximum concentration of 50 μM. The absorbance was measured at 570 nm with a Multilabel Plate Reader (Sunrise TECAN, Männedorf, Switzerland). Cytotoxicity was determined with the MTT assay. Quercetin (Sigma-Aldrich, Foster City, CA, USA) was used as the positive control.
Series [3] relates to BV-2 microglia.
Method: as §1
Series [4] deals with BV-2 microglia. Put plainly: Cytotoxicity (cell viability) by MTT assay. The note with it: compound at 50 µM, 50 µM.
Method: as §1
The mark [5] stands for this setting: Mus musculus, BV-2, LPS-activated BV-2 microglia, maximum concentration tested 50 μM, read-out: IC50 (µM), inhibition of NO production.
Where [6] appears, read: LPS-activated BV-2 microglia, maximum concentration tested 50 μM, read-out: IC50 (µM), inhibition of NO production.

Like-named read-outs stand apart in the source and are kept apart here.

As for `O=C1C=CC23CC(O)(COC2=C1)Cc1cc(O)c(O)cc13` (stereo not drawn) [Compound 2, 7,10,11-trihydroxydracaenone], in series [1] (setting [5]), the 50% inhibitory concentration (IC50) stood at 56.7 µM. The viability at 50 µM in series [2] came out at 99.3%.

As to `O=c1c2cccc(O)c2oc2cccc(O)c12` [Compound 5, 1,5-dihydroxyxanthone], the IC50 in series [1] (setting [5]) is 28.7 µM. The viability at 50 µM in series [2] came out at 101%.

Take `O=c1c(O)c(-c2ccc(O)c(O)c2)oc2cc(O)cc(O)c12` [quercetin, reference compound]: the IC50 in series [1] (setting [5]) was determined as 23.4 µM.

Take `O=c1c2cc(O)ccc2oc2cccc(O)c12` [Compound 6, 1,7-dihydroxyxanthone]: in series [1] (LPS-activated BV-2 microglia), the “inhibitory activity against nitric oxide production (in words)” value (shortened to “inhibitory activity”) is on record as “obvious inhibitory activity”. In series [1] (Mus musculus, BV-2, read-out: IC50 (µM), inhibition of NO production), the half-maximal inhibitory concentration (IC50) was found to be 21.5 µM. Moreover, in series [2], the viability at 50 µM stood at 102%.

Consider `O=C1/C(=C/c2ccc(O)c(O)c2)COc2cc(O)ccc21` [Compound 8, sappanone A], for which the “inhibitory activity” value in series [1] (LPS-activated BV-2 microglia) is reported as “obvious inhibitory activity”. In series [1] (setting [5]), the IC50 was 8.26 µM. In series [2], the viability at 50 µM was 99.3%.

As to 1-hydroxy-7-methylxanthone [Compound 4], the “inhibitory activity” value in series [1] (LPS-activated BV-2 microglia) is reported as “obvious inhibitory activity”. The IC50 in series [1] (setting [6]) came out at 14.2 µM. In addition, in series [3], the “Viability (at 50 µM, %)” value is listed as 98.94%.

In the case of `O=C(/C=C/c1ccc(O)c(O)c1)c1ccc(O)cc1O` [Compound 7, butein], in series [1] (LPS-activated BV-2 microglia), the “inhibitory activity” value was “obvious inhibitory activity”. For the same molecule, the half-inhibitory concentration (IC50) in series [1] (setting [5]) was 15.5 µM. The viability at 50 µM in series [2] turned out to be 94%.

With `CO[C@H]1[C@]2(O)COC3=CC(=O)C=C[C@@]31c1cc(O)c(O)cc1C2` [Compound 3, caesalpin J], the IC50 in series [1] (setting [6]) came out at 45.9 µM. Besides, the “Viability (at 50 µM, %)” value in series [4] is listed as 96.13%.

As for `CO[C@H]1[C@]2(O)COC3=CC(=O)C=C[C@@]31c1cc(O)c(O)cc1C2` [Compound 1, epicaesalpin J], the IC50 in series [1] (setting [5]) is 52.6 µM. Besides, the viability at 50 µM in series [2] worked out at 96.5%.

The values are drawn from publication PMC6270973, “Two New Phenolic Compounds from the Heartwood of Caesalpinia sappan L” (Molecules, 2013).
